In patent US20160115540A1, “PRODRUGS AND DRUGS” (Biogen MA Inc., priority 2013, published 2016):
Counter-ions that a name gives are not always drawn.

Test system: kidney
Experiment: Transcriptional profiling on Affymetrix GeneChips, single dose, naïve mice: kidney
Assay type: in vivo, C57BL/6 mice
Details: 100 DMF-vs-Veh, 2 h
Procedure: Treated mice were sacrificed at 2, 7, or 12 hours. Tissues (liver, spleen, kidney, jejunum, cortex, hippocampus, striatum and whole blood) were collected and analyzed by transcriptional profiling on mouse Affymetrix GeneChips.
Tissues (liver, spleen, kidney, jejunum, cortex, hippocampus, striatum and whole blood) were collected and analyzed by transcriptional profiling on mouse Affymetrix GeneChips.
Animals were exposed to CO2 and whole blood collected via cardiac puncture. Two 100 μl aliquots of whole blood were collected in 1.5 mL microcentrifuge tubes and snap frozen in liquid nitrogen. Peripheral (liver, spleen, kidney and jejunum) and CNS brain (cerebellum, hippocampus, striatum and cortex) tissues were harvested and snap frozen in liquid nitrogen, with special care taken to collect tissues of similar size and from the same location. All samples were stored at −80° C. until RNA extraction was conducted.
For RNA preparation, frozen tissues were placed in 2 mL RNAse-free 96-well blocks with 1.5 mL QIAzol Lysis Reagent (QIAgen) and a 3.2 mm stainless steel bead (BioSpec Products, Bartlesville, Okla.). Tissues were disrupted for four cycles of 45 seconds in a Mini-Beadbeater (Biospec Products). RNA was extracted in chloroform and the aqueous phase was mixed with an equal volume of 70% ethanol. Extracted RNA was applied to RNeasy 96 plates and purified by the spin method according to the manufacturer's protocol (RNeasy 96 Universal Tissue Protocol, QIAgen, Hilden Germany).
Automated sample amplifications and biotin labelings were carried out using the NuGEN Ovation RNA Amplification system V2 (Cat #3100), Ovation WB reagent (Cat #1300) and Encore Biotin module (Cat #4200) (NuGEN Technologies, Inc, San Carlos, Calif.) according to manufacturer's recommendations using an Arrayplex automated liquid handler (Beckman Coulter, Indianapolis, Ind.). Two micrograms of biotin labeled sscDNA probe were hybridized to Affymetrix GeneChip Affymetrix HT_MG-430_PM plate arrays with modified conditions as described in Allaire et al. Washing and staining of the hybridized arrays were completed as described in the GeneChip Expression analysis technical manual for HT plate arrays using the Genechip® Array Station (Affymetrix, Santa Clara, Calif.) with modifications as described in Allaire et al. The processed GeneChip® plate arrays were scanned using GeneTitan scanner (Affymetrix, Santa Clara, Calif.).
Affymetrix scans were subject to quality control (QC) measures. These tests included a visual inspection of the distribution of raw signal intensities and an assessment of RNA degradation, relative log expression (RLE), and normalized unsealed standard error (NUSE). All sample scans that passed these QC metrics were included in the analysis.
All CEL files were subjected to GC-content-based Robust Multi-array Average (GCRMA) normalization (version 2.20.0) (Irizarry R A, et al. Nucleic Acids Res 2003; 31:e15; Li C, et al. Genome Biol 2001; 2:[…]0032). Expression levels were log (base 2) transformed.
All calculations and analyses were carried out using R (version 2.11.1) and Bioconductor computational tools (Gentleman R. Springer Science+Business Media 2005).

COC(=O)/C=C/C(=O)OC [DMF, dimethyl fumarate]
FC 1200016B10Rik 1428654_PM_at: 1.59
FC 1200016B10Rik 1452859_PM_at: 1.62
FC 1438879_PM_at: −1.61
FC 1439292_PM_at: 2.14
FC 1440076_PM_at: 3.71
FC 1440084_PM_at: −1.57
FC 1440304_PM_at: −1.68
FC 1440457_PM_at: 1.76
FC 1440660_PM_at: −1.56
FC 1441155_PM_at: 1.51
FC 1441360_PM_at: 1.55
FC 1441413_PM_at: 1.88
FC 1441455_PM_at: 1.58
FC 1441482_PM_at: −2.08
FC 1441484_PM_at: −1.79
FC 1441518_PM_at: −1.67
FC 1441794_PM_at: −1.72
FC 1442422_PM_at: 1.74
FC 1442483_PM_at: −1.59
FC 1442504_PM_at: −1.70
FC 1442506_PM_at: 5.76
FC 1442671_PM_at: 1.55
FC 1442725_PM_at: −1.53
FC 1442928_PM_at: 1.66
FC 1443100_PM_at: −1.63
FC 1443109_PM_at: 1.69
FC 1443289_PM_at: −1.65
FC 1443335_PM_at: −1.78
FC 1443546_PM_at: 1.74
FC 1443566_PM_at: −1.76
FC 1443673_PM_x_at: 2.06
FC 1444021_PM_at: 3.24
FC 1444057_PM_at: 1.75
FC 1444111_PM_at: −1.67
FC 1444212_PM_at: 1.57
FC 1444227_PM_at: 1.56
FC 1444265_PM_at: 1.93
FC 1445290_PM_at: −1.52
FC 1445349_PM_at: −1.70
FC 1445600_PM_at: −1.65
FC 1445664_PM_at: −1.60
FC 1446075_PM_at: −1.62
FC 1446172_PM_at: 1.85
FC 1446621_PM_at: 1.74
FC 1446921_PM_at: 1.58
FC 1447172_PM_at: −1.61
FC 1447396_PM_at: −1.90
FC 1447411_PM_at: 4.68
FC 1700012D14Rik 1438880_PM_at: −1.55
FC 1810013L24Rik 1431018_PM_at: 1.50
FC 2200002K05Rik 1428400_PM_at: −1.79
FC 2210403K04Rik 1428562_PM_at: 1.86
FC 2210416J07Rik 1432665_PM_at: −1.87
FC 2410089E03Rik 1443422_PM_at: −1.72
FC 2810029C07Rik 1428686_PM_at: −1.58
FC 2900011L18Rik 1432757_PM_at: 1.62
FC 4833418N02Rik 1430686_PM_at: −1.51
FC 4921509J17Rik 1430244_PM_at: 1.60
FC 4932416J16Rik 1430783_PM_at: −1.67
FC 4933427G17Rik 1431905_PM_s_at: −1.65
FC 5830487K18Rik 1432625_PM_at: −1.90
FC 6430571L13Rik 1439669_PM_at: −1.85
FC 9130221J17Rik (1443159_PM_at): 9.22
FC 9530086O07Rik 1430392_PM_at: −1.52
FC A130012E19Rik 1440671_PM_at: 1.56
FC AI845619 1442726_PM_s_at: 5.44
FC Aars 1451083_PM_s_at: 1.53
FC Abce1 1442071_PM_at: 1.53
FC Acvr2b 1419140_PM_at: −1.51
FC Adamts1 1450716_PM_at: 1.86
FC Adamts15 1427056_PM_at: −2.26
FC Ahsa2 1435160_PM_at: 1.64
FC Aldh2 1437410_PM_at: 1.69
FC Alkbh1 1434660_PM_at: 1.53
FC Anxa7 1438764_PM_at: 1.88
FC Aox1 (1419435_PM_at): 2.46
FC Arl5b 1437884_PM_at: 1.93
FC Arpc5l 1441190_PM_at: 1.70
FC Asns 1433966_PM_x_at: 2.54
FC Asns 1451095_PM_at: 3.03
FC Atf4 1438992_PM_x_at: 1.77
FC Atf4 1448135_PM_at: 2.12
FC Atp1a2 1452308_PM_a_at: 1.84
FC BC005512 /// F630007L15Rik /// Gm6958 1426936_PM_at: −1.67
FC BC005512 /// F630007L15Rik /// Gm6958 1435628_PM_x_at: −1.72
FC BC026585 1445857_PM_at: −1.51
FC BC031353 1439293_PM_at: −1.84
FC Bach1 1440831_PM_at: 1.90
FC Bach1 1449311_PM_at: 2.55
FC Bag3 1422452_PM_at: 2.03
FC Baiap2 1425656_PM_a_at: 1.51
FC Baz1a 1433599_PM_at: 2.51
FC Baz1a /// LOC100505185 1447930_PM_at: 2.56
FC Bcl11b 1438784_PM_at: −1.52
FC Brd2 1423502_PM_at: 1.83
FC Brd2 1437210_PM_a_at: 2.07
FC Btbd10 1438578_PM_a_at: 1.60
FC C730027H18Rik 1442546_PM_at: −1.57
FC Cars 1452394_PM_at: 1.63
FC Cbr3 (1427912_PM_at): 3.04
FC Ccdc30 1430593_PM_at: −2.01
FC Ccdc117 1452218_PM_at: 1.54
FC Cenpe 1435005_PM_at: −2.20
FC Chac1 1451382_PM_at: 31.00
FC Chd1 1420990_PM_at: 1.76
FC Chd1 1450077_PM_at: 1.67
FC Cltc 1439094_PM_at: 2.07
FC Cyp27b1 1427372_PM_at: −3.22
FC Cyr61 1438133_PM_a_at: 2.64
FC D16Ertd778e 1445089_PM_at: −2.60
FC Dcbld1 1418966_PM_a_at: 1.78
FC Ddit3 1443897_PM_at: 3.97
FC Dnaja4 1434196_PM_at: 1.63
FC Dnajb4 1431734_PM_a_at: 2.15
FC Dnajb4 1451177_PM_at: 2.48
FC Dusp4 1428834_PM_at: 2.09
FC Dusp5 1437199_PM_at: 3.68
FC E130306D19Rik 1436725_PM_at: −1.64
FC Eid3 1429350_PM_at: 1.84
FC Eif2c3 1435904_PM_at: 1.53
FC Esd (1441604_PM_at): 1.62
FC Fam126a 1450724_PM_at: 1.70
FC Fbxo30 1436550_PM_at: 1.81
FC Fgd3 1433398_PM_at: 1.66
FC Fgf1 1441042_PM_at: −2.91
FC Fgfbp1 1419086_PM_at: 1.81
FC Fn3k 1442436_PM_at: −1.60
FC Fras1 1440765_PM_at: −1.73
FC Gadd45a 1449519_PM_at: 1.75
FC Gclc (1424296_PM_at): 1.70
FC Gdap10 1420342_PM_at: 1.52
FC Gdf15 1418949_PM_at: 5.39
FC Gm10374 1436357_PM_at: −1.52
FC Gm10804 1441759_PM_at: −1.67
FC Gsta3 (1423437_PM_at): 2.01
FC Gt(ROSA)26Sor 1452239_PM_at: 1.62
FC Hectd2 1433944_PM_at: 1.67
FC Hinfp 1440255_PM_at: 1.57
FC Hk2 1422612_PM_at: 2.72
FC Hmox1 1448239_PM_at: 6.27
FC Hnf1b 1421224_PM_a_at: −1.77
FC Hnf1b 1451687_PM_a_at: −1.82
FC Hsp90aa1 1426645_PM_at: 1.64
FC Hsp90aa1 1437497_PM_a_at: 1.55
FC Hspa1a 1452388_PM_at: 2.35
FC Hspa1b 1427126_PM_at: 3.65
FC Hspa1b 1427127_PM_x_at: 3.37
FC Hspa1b 1452318_PM_a_at: 1.70
FC Hspa4l 1439093_PM_at: 1.67
FC Hspa8 /// LOC624853 1431182_PM_at: 2.63
FC Hsph1 1423566_PM_a_at: 2.40
FC Igf1r 1446303_PM_at: −1.66
FC Jmjd6 1420056_PM_s_at: 1.52
FC Jmjd6 1420057_PM_at: 1.54
FC Jun 1448694_PM_at: 1.50
